Here are results for eleven compounds from patent publication US9815796B2 (Merck Sharp & Dohme Corp., priority 2013, dated 2017).

Broadly, the Ki is the dissociation constant of the complex between target and ligand, obtained from inhibition or displacement.

Like-named read-outs stand apart in the source and are kept apart here.

One test concerns the target Rhesus PDE2A3 (Macaca mulatta, UniProt B3VTJ2). Kind of test: PDE2 fluorescence polarization (IMAP FP) inhibition assay, rhesus enzyme. Type of test: biochemical, rhesus macaque. In short, it runs like this: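 IMAP FP (mP from parallel and perpendicular fluorescence against substrate-only control) was read ≥1 h after adding binding reagent. The preceding 60 min room-temperature reaction contained FAM-cAMP (50 nM) and cGMP (1 uM) in pH 7.2 Tris buffer with MgCl2 and DTT. Enzyme was supernatant of sonicated AD293 cells expressing rhesus PDE2A3; compounds were 3-fold titrated, DMSO 1% final.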
In general terms: In fluorescence polarisation assays a small probe gives low polarisation when free and higher when bound to something large.

The target of another test is human PDE2A1 (Homo sapiens (Human), UniProt O00408). Kind of test: IMAP FP PDE selectivity panel, human PDE2A1. In kind it is biochemical. In a few lines: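 IMAP FP format: substrate 50 nM FAM-cAMP plus 1000 nM cGMP, enzyme (insect-cell GST-tagged human PDE2A1) at ~20% conversion, 60 min reaction at room temperature. Apparent inhibition constants calculated from parallel/perpendicular fluorescence with KM 10,000 nM.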

[1] abbreviates: Rhesus PDE2, Lab A, read-out: Rhesus PDE2 Ki (nM) - Lab A.
[2] abbreviates: Human PDE2, Lab A, read-out: Human PDE2 Ki (nM) - Lab A.
Where [3] appears, read: Rhesus PDE2, Lab B, read-out: Rhesus PDE2 Ki (nM) - Lab B.
[4] abbreviates: Human PDE2, Lab B, read-out: Human PDE2 Ki (nM) - Lab B.

Chain of human PDE2A1 (O00408 other isoform, or with tags, fused parts or gaps): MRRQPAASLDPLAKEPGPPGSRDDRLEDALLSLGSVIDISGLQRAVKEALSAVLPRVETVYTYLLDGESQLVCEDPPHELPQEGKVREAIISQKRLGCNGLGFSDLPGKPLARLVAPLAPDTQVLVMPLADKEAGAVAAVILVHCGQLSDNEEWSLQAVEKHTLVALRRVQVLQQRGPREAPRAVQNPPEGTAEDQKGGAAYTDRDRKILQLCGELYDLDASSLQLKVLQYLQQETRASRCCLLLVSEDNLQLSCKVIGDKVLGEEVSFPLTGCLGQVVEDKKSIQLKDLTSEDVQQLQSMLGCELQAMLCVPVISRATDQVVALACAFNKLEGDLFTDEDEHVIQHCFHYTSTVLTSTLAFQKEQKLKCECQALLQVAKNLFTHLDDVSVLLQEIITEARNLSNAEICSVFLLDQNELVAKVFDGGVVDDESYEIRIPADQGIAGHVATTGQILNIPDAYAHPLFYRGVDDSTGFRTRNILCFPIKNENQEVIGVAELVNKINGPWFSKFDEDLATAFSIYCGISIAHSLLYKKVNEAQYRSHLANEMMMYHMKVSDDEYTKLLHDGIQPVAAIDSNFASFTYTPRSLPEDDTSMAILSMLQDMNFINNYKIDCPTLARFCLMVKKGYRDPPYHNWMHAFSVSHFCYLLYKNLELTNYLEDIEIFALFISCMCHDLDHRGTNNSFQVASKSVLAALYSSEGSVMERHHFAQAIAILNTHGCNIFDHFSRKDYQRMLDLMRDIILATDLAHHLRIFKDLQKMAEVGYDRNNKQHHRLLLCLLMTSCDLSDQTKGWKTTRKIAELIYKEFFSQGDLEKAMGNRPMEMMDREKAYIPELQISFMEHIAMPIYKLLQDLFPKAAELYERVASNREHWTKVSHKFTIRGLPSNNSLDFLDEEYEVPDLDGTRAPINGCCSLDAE
Chain of Rhesus PDE2A3 (B3VTJ2 1-941): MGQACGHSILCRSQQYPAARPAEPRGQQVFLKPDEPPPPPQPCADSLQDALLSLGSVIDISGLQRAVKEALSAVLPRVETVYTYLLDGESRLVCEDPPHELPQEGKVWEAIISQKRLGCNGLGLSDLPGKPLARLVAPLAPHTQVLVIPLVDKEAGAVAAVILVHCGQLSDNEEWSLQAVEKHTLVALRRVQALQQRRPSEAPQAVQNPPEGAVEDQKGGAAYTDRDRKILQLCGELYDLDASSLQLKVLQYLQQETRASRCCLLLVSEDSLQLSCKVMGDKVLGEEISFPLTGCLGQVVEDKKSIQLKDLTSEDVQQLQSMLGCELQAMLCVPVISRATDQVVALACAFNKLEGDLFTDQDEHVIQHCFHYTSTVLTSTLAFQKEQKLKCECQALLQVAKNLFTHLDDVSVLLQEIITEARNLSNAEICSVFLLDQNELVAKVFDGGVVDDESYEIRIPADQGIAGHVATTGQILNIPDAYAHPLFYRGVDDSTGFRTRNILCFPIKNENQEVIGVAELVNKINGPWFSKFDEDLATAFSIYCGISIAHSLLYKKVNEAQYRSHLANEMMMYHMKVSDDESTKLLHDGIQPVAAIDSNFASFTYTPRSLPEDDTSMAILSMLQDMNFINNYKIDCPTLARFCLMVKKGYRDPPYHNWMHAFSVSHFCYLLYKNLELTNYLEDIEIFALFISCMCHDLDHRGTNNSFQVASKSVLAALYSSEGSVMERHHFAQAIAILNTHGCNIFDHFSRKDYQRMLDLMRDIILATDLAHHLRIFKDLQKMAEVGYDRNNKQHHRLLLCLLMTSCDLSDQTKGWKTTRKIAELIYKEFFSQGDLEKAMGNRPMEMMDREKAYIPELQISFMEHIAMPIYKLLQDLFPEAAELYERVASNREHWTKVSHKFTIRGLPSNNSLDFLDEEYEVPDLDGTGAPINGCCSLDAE

For `COc1ccc(Cc2nc(C(=O)NC3(c4ccc(C(F)(F)F)cc4)CC3)cc(=O)[nH]2)cc1OC` [Example 3, 2-(3,4-dimethoxybenzyl)-6-oxo-N-{1-[4-(trifluoromethyl)phenyl]-cyclopropyl}-1,6-dihydropyrimidine-4-carboxamide], the Ki was determined as 0.54 nM at Rhesus PDE2A3 (setting [1]) and 0.45 nM on human PDE2A1 (setting [2]).
For `CC[C@@H](NC(=O)c1cc(=O)[nH]c(C2CC2)n1)c1ccc(OC(F)(F)F)cc1` [Example 225, 2-cyclopropyl-6-oxo-N-{(1R)-1-[4-(trifluoromethoxy)phenyl]propyl}-1,6-dihydropyrimidine-4-carboxamide], the Ki is 8.3 nM at Rhesus PDE2A3 (setting [1]) and 4.6 nM on human PDE2A1 (setting [2]).
Turning to `CC(C)(C)[C@@H](NC(=O)c1cc(=O)[nH]c(-c2ncccn2)n1)c1ccc(C2CC2)c(F)c1` [Example 451, N-[(1R)-1-(4-cyclopropyl-3-fluorophenyl)-2,2-dimethylpropyl]-6-oxo-1,6-dihydro-2,2′-bipyrimidine-4-carboxamide], the Ki on Rhesus PDE2A3 (setting [3]) was found to be 6.7 nM; at human PDE2A1 (setting [4]), 4.8 nM.
Take `COc1ccc(C(C)(C)c2nc(C(=O)N[C@@H](c3ccc(OC(F)(F)F)c(F)c3)C(C)C)cc(=O)[nH]2)cc1` [Example 492, N-{(1R)-1-[3-fluoro-4-(trifluoromethoxy)phenyl]-2-methylpropyl}-2-[1-(4-methoxyphenyl)-1-methylethyl]-6-oxo-1,6-dihydropyrimidine-4-carboxamide]: the results for the Ki at Rhesus PDE2A3 (setting [3]) and at human PDE2A1 (setting [4]) were 42 nM and 29 nM, respectively.
As for `O=C(NC1(c2ccc(OC(F)(F)F)cc2)CC1)c1cc(=O)[nH]c(-c2ccccc2)n1` [Example 277, 6-oxo-2-phenyl-N-{1-[4-(trifluoromethoxy)phenyl]cyclopropyl}-1,6-dihydropyrimidine-4-carboxamide], the Ki was found to be 6.6 nM on Rhesus PDE2A3 (setting [1]) and 5.6 nM on human PDE2A1 (setting [2]).
On to `O=C(N[C@@H](c1ccc(C(F)(F)F)c(F)c1)C1CC1)c1cc(=O)[nH]c(-c2ccccc2)n1` [Example 174, N-{(R)-cyclopropyl[3-fluoro-4-(trifluoromethyl)phenyl]methyl}-6-oxo-2-phenyl-1,6-dihydropyrimidine-4-carboxamide], for which the values for the Ki on Rhesus PDE2A3 (setting [1]) and on human PDE2A1 (setting [2]) were 5.7 nM and 4.5 nM, respectively.
On to `CCc1c(C(=O)N[C@H](C)c2ccc(C(F)(F)F)cc2)nc[nH]c1=O` [Example 332, (R)-5-ethyl-6-oxo-N-(1-(4-(trifluoromethyl)phenyl)ethyl)-1,6-dihydropyrimidine-4-carboxamide], for which the Ki was determined as 2900 nM at Rhesus PDE2A3 (setting [1]) and 2270 nM on human PDE2A1 (setting [2]).
For `O=C(NC1(c2ccc(C(F)(F)F)cc2)CCC1)c1cc(=O)[nH]c(-c2ncccn2)n1` [Example 286, 6-oxo-N-{1-[4-(trifluoromethyl)phenyl]cyclobutyl}-1,6-dihydro-2,2′-bipyrimidine-4-carboxamide], the Ki at Rhesus PDE2A3 (setting [1]) turned out to be 83 nM; on human PDE2A1 (setting [2]), 60 nM.
Take `COCc1nc(C(=O)N[C@@H](c2ccc(C(F)(F)F)cc2)C2CC2)cc(=O)[nH]1` [Example 118, N-{(R)-cyclopropyl[4-(trifluoromethyl)phenyl]methyl}-2-(methoxymethyl)-6-oxo-1,6-dihydropyrimidine-4-carboxamide]: the Ki stood at 76 nM at Rhesus PDE2A3 (setting [1]) and 18 nM on human PDE2A1 (setting [2]).
For `CC(NC(=O)c1cc(=O)[nH]c(C2CC2)n1)c1ccc(C2CC2)cc1` (stereo not shown) [Example 195, 2-cyclopropyl-N-[1-(4-cyclopropylphenyl)ethyl]-6-oxo-1,6-dihydropyrimidine-4-carboxamide], the Ki on Rhesus PDE2A3 (setting [1]) was 33 nM; on human PDE2A1 (setting [2]) it was 18 nM.
`CC(C)[C@@H](NC(=O)c1cc(=O)[nH]c(-c2ccccc2)n1)c1ccc(S(F)(F)(F)(F)F)cc1` [Example 388, N-{(1R)-2-methyl-1-[4-(pentafluoro-λ^6-sulfanyl)phenyl]propyl}-6-oxo-2-phenyl-1,6-dihydropyrimidine-4-carboxamide]: the Ki worked out at 4.7 nM at Rhesus PDE2A3 (setting [3]) and 3.9 nM at human PDE2A1 (setting [4]).
